# Results as given in paper PMC5897276, “External radiation exposure, excretion, and effective half-life in ^177Lu-PSMA-targeted therapies” (EJNMMI Research, 2018).
# “And” between values parts separate entries of the source, which are not always exact repeats. Equal entries are not always repeated. Where two headings read alike, the source gives them in different places. Marks after values point to notes of the source that are not given here.
# What was measured:
# [1] = Whole-body dose rate measurement at a distance of 2 m and calculation of effective half-life; type: in vivo, patients
# Protocol: The measurements and analyses were carried out with 50 patients from both departments as characterized in Table 1. All patients of Department 2 were released from the hospital 72 h p. i. for organizational reasons. Therefore, dose rate measurements were also available for ti = 72 h p. i.
# In both departments, the dose rate monitor LB 123 D-H10 (Berthold Technologies, Bad Wildbad, Germany) was used, which is suitable for dose rate levels between 0.05 μSv/h and 10 mSv/h within an energy range from 30 keV to 1.3 MeV. The systems were officially calibrated, and regular quality checks were carried out. The patients were measured in the standing position from the anterior (DRA) and posterior (DRP) view at a distance of 2 m from the surface of the detector. The dose rate DR for different time points (see Table 1) was then calculated as the geometric mean of both measurements5 DRti=DRAti∙DRPti.
# (§1) The data were fitted by a mono-exponential curve, and the effective half-life was calculated for the different time points: 24, 48, and 72 h (only from the data of Department 2). […] For all comparisons, the time point 48 h was chosen as the reference, because it is standard that the patients are released from the therapy ward after 48 h. Subsequently, Eq. 4 was used to determine the dose D to the public after the discharge of the patient for different time points of release (24, 48, and 72 h p. i.), substituting T1/2eff by T1/2ind (individual half-life of each patient), T1/2phys (physical half-life of ^177Lu), and T1/2max (maximum of the calculated effective half-life of the patient cohort) for different calculations. In addition, a correlation analysis (Spearman and Pearson) of the dose rate and administered activity was performed.
# [2] = Estimation of dose to the public after discharge of the patient (Eq. 4); type: in vivo, patients
# Text: The determination of the expected dose D to the public requires knowledge of the dose rate DR at the time point of the release of the patient and of the effective half-life T1/2eff. The dose D can then be calculated according to the following equation:4 D=DR∙T1/2eff/ln2.
# This equation was originally recommended by the German Commission on Radiological Protection to conservatively estimate the dose to the public after iodine-131 therapy.
# as §1
# [3] = set-up: method as in PMID 27089552; settings: group of 7 patients; cited from earlier work
# [4] = set-up: method as in PMID 27089552; settings: cited from earlier work; for Mean dose rate at 1 m: 23 patients, 7.5 GBq
# [5] = time point 45.7 ± 2.1 h p. i. (48 h)
# [6] = time point 67.7 ± 2.3 h p. i. (72 h), 25 patients (Department 2)
# [7] = discharge 24 h p. i., T1/2ind (value from the 48-h measurement point)
# [8] = discharge 72 h p. i., T1/2ind, 25 patients (Department 2)
# [9] = discharge 72 h p. i., T1/2max, 25 patients (Department 2)
# [10] = discharge 72 h p. i., T1/2phys, 25 patients (Department 2)
compound,measurement,setting,value
O=C([O-])CN1CCN(CC(=O)[O-])CCN(CC(=O)NCC2CCC(C(=O)N[C@@H](Cc3ccc4ccccc4c3)C(=O)NCCCC[C@H](NC(=O)N[C@@H](CCC(=O)O)C(=O)O)C(=O)O)CC2)CCN(CC(=O)[O-])CC1.[177Lu+3] (some centres unmarked) [^177Lu-PSMA-617],"Dose rate (measured at a distance of 2 m), mean",[1]; time point 2 ± 0.3 h p. i.,3.6 ± 0.7 μSv/h and 3.6 μSv/h
same,"Dose rate (measured at a distance of 2 m), min",[1]; time point 2 ± 0.3 h p. i.,2.2 μSv/h
same,"Dose rate (measured at a distance of 2 m), max",[1]; time point 3.9 ± 0.7 h p. i.,3.8 μSv/h
same,"Dose rate (measured at a distance of 2 m), mean",[1]; time point 3.9 ± 0.7 h p. i.,2.8 μSv/h
same,"Dose rate (measured at a distance of 2 m), min",[1]; time point 3.9 ± 0.7 h p. i.,1.3 μSv/h
same,"Dose rate (measured at a distance of 2 m), mean",[1]; time point 24.2 ± 0.7 h p. i.,1.6 ± 0.6 μSv/h and 1.6 μSv/h
same,"Dose rate (measured at a distance of 2 m), min",[1]; time point 24.2 ± 0.7 h p. i.,0.5 μSv/h
same,"Dose rate (measured at a distance of 2 m), max",[1]; [5],2.3 μSv/h
same,"Dose rate (measured at a distance of 2 m), mean",[1]; [5],1.1 ± 0.5 μSv/h and 1.1 μSv/h
same,"Dose rate (measured at a distance of 2 m), min",[1]; [5],0.4 μSv/h
same,"Dose rate (measured at a distance of 2 m), max",[1]; [6],2.1^a μSv/h
same,"Dose rate (measured at a distance of 2 m), mean",[1]; [6],0.7 ± 0.4 μSv/h and 0.7^a μSv/h
same,"Dose rate (measured at a distance of 2 m), min",[1]; [6],0.1^a μSv/h
same,"Estimated dose to the public after 1 cycle, mean",[2]; [7],100 μSv and 99 μSv
same,"Estimated dose to the public after 1 cycle, min",[2]; [7],25 μSv
same,"Estimated dose to the public after 1 cycle, max","[2]; discharge 24 h p. i., T1/2max",410 μSv
same,"Estimated dose to the public after 1 cycle, mean","[2]; discharge 24 h p. i., T1/2max",208 μSv
same,"Estimated dose to the public after 1 cycle, min","[2]; discharge 24 h p. i., T1/2max",75 μSv
same,"Estimated dose to the public after 1 cycle, max","[2]; discharge 24 h p. i., T1/2phys",779 μSv
same,"Estimated dose to the public after 1 cycle, mean","[2]; discharge 24 h p. i., T1/2phys",396 μSv
same,"Estimated dose to the public after 1 cycle, min","[2]; discharge 24 h p. i., T1/2phys",142 μSv
same,"Estimated dose to the public after 1 cycle, min","[2]; discharge 48 h p. i., T1/2ind",13 μSv
same,"Estimated dose to the public after 1 cycle, max","[2]; discharge 48 h p. i., T1/2max",294 μSv
same,"Estimated dose to the public after 1 cycle, mean","[2]; discharge 48 h p. i., T1/2max",139 μSv
same,"Estimated dose to the public after 1 cycle, min","[2]; discharge 48 h p. i., T1/2max",49 μSv
same,"Estimated dose to the public after 1 cycle, max","[2]; discharge 48 h p. i., T1/2phys",560 μSv
same,"Estimated dose to the public after 1 cycle, mean","[2]; discharge 48 h p. i., T1/2phys",263 μSv
same,"Estimated dose to the public after 1 cycle, min","[2]; discharge 48 h p. i., T1/2phys",93 μSv
same,"Estimated dose to the public after 1 cycle, max",[2]; [8],204 μSv
same,"Estimated dose to the public after 1 cycle, mean",[2]; [8],50 μSv
same,"Estimated dose to the public after 1 cycle, min",[2]; [8],17 μSv
same,"Estimated dose to the public after 1 cycle, max",[2]; [9],233 μSv
same,"Estimated dose to the public after 1 cycle, mean",[2]; [9],105 μSv
same,"Estimated dose to the public after 1 cycle, min",[2]; [9],49 μSv
same,"Estimated dose to the public after 1 cycle, max",[2]; [10],443 μSv
same,"Estimated dose to the public after 1 cycle, mean",[2]; [10],200 μSv
same,"Estimated dose to the public after 1 cycle, min",[2]; [10],93 μSv
same,Expected dose to the public per cycle of therapy,"[2]; human, in vivo",below 1 mSv
same,Maximum dose to individual members of the public per treatment cycle,[2]; patient discharged after 72 h,~ 190 ± 36 μSv
same,Estimated dose to the public per cycle,[2]; physical half-life of lutetium-177 used for the calculation (conservative approach),below 1 mSv
same,"Administered activity excreted within the first 6 h, mean",[3],45%
same,Mean dose rate at 1 m,[4]; after 4 h,23 ± 6 μSv/h
same,Mean dose rate at 1 m,[4]; after 6 h,15 ± 4 μSv/h
same,Mean dose received by close family members,"[4]; measured for 5 days post-injection with optically stimulated luminescence dosimeter, patients released 6 h p. i.",202 ± 43 μSv
